The record followed here is patent publication US20250212681A1, “Light-Emitting Device” (Semiconductor Energy Laboratory Co., Ltd., priority 2023, published 2025).

The structures appear in SMILES notation.

The nature of the series: Solubility test of PrdP2Phen by LC-MS analysis. The format is physicochemical. As to conditions: 1 mg in 1 mL of water, ultrasonic waves 5 minutes, filtrate analysed by LC-MS; one atmosphere, room temperature. How it is done: Next, a solubility test of PrdP2Phen was performed. Note that the solubility test was conducted at a pressure of one atmosphere at room temperature (RT).
In the LC-MS analysis, liquid chromatography (LC) separation was carried out with ACQUITY UPLC (manufactured by Waters Corporation), and MS analysis (mass spectrometry) was carried out with Xevo G2 Tof MS (manufactured by Waters Corporation). Acquity UPLC BEH C8 (2.1×100 mm, 1.7 μm) was used as a column for the LC separation. Acetonitrile was used for Mobile Phase A and a 0.1% aqueous solution of formic acid was used for Mobile Phase B. The injection amount of the sample was 5.0 μL. Note that in the analysis, the wavelength of a photodiode array detector was set to 263 nm±1 nm.
In a 5-mL sample bottle, 1 mg of PrdP2Phen was put and 1 mL of water was added thereto. This mixture was irradiated with ultrasonic waves for 5 minutes. This mixture was filtered through a membrane filter to remove the solid, and the resulting filtrate was diluted by five times with acetonitrile. The obtained solution was subjected to LC-MS analysis.

Take `c1cc(-c2ccc(N3CCCC3)cc2)c2ccc3c(-c4ccc(N5CCCC5)cc4)ccnc3c2n1` [PrdP2Phen, 4,7-bis[4-(1-pyrrolidinyl)phenyl]-1,10-phenanthroline]: the solubility in water result is “extremely low solubility in water”.
